Experimental data from the supplement of paper PMC10331698.
± gives the standard deviation of the averaged measurements.

Experiments:
Assay in all cases: level (log10 ratio to DMSO vehicle control); higher = higher biomarker level / cell amount than vehicle control
[1] = compound: C=C(C)C(=O)OCC(F)(F)C(F)(F)C(F)(F)F [2,2,3,3,4,4,4-Heptafluorobutyl methacrylate]; conditions: in DMSO
Method: (§1)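 BioMAP Diversity Plus panel of 12 human primary cell co-culture systems (3C, 4H, LPS, SAg, BT, BF4T, BE3C, CASM3C, HDF3CGF, KF3CT, MyoF, Mphg). Compounds were added 1 h before stimulation and left for 24 h (MyoF 48 h; BT 72 h for soluble read-outs or 6 d for IgG). Biomarkers were read by ELISA, cytotoxicity by SRB, PBMC viability and proliferation by Alamar Blue. Each well value was divided by the mean of 8 DMSO control wells on the same plate and log10 transformed; duplicate blinded samples were tested at 4 concentrations.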

[2] = compound: Cc1ccc(S(=O)(=O)OCC(F)(F)C(F)(F)C(F)(F)C(F)(F)C(F)(F)C(F)F)cc1 [1H,1H,7H-Perfluoroheptyl 4-methylbenzenesulfonate]; conditions: in DMSO
Method: as §1

[3] = compound: FC(F)(F)C(F)(F)C(F)(F)C(F)(F)CCI [1H,1H,2H,2H-Perfluorohexyl iodide]; conditions: in DMSO
Method: as §1

[4] = compound: O=C(Cl)C(F)(F)C(F)(F)C(F)(F)C(=O)Cl [Hexafluoroglutaryl chloride]; conditions: in DMSO
Method: as §1

[5] = compound: O=S(=O)(OCC(F)(F)F)C(F)(F)C(F)(F)C(F)(F)C(F)(F)F [2,2,2-Trifluoroethyl perfluorobutanesulfonate]; conditions: in DMSO
Method: as §1

[6] = compound: OCC(F)(F)C(F)(F)C(F)(F)C(F)(F)C(F)(F)C(F)(F)C(F)(F)C(F)(F)C(F)(F)C(F)(F)C(F)(F)F [11:1 Fluorotelomer alcohol]; conditions: in DMSO
Method: as §1

[7] = compound: OCCCC(F)(F)C(F)(F)C(F)(F)C(F)(F)C(F)(F)C(F)(F)C(F)(F)C(F)(F)F [3-(Perfluorooctyl)propanol]; conditions: 6700 nM; in DMSO
Method: as §1

| Test System | level (log10) ([1]; 6700 nM) | level (log10) ([1]; 20000 nM) | level (log10) ([1]; 60000 nM) | level (log10) ([2]; 6700 nM) | level (log10) ([2]; 20000 nM) | level (log10) ([2]; 60000 nM) | level (log10) ([3]; 6700 nM) | level (log10) ([3]; 20000 nM) | level (log10) ([3]; 60000 nM) | level (log10) ([4]; 6700 nM) | level (log10) ([4]; 20000 nM) | level (log10) ([4]; 60000 nM) | level (log10) ([5]; 6700 nM) | level (log10) ([5]; 20000 nM) | level (log10) ([5]; 60000 nM) | level (log10) ([6]; 1100 nM) | level (log10) ([6]; 3300 nM) | level (log10) ([6]; 10000 nM) | level (log10) [7] |
| --- | --- | --- | --- | --- | --- | --- | --- | --- | --- | --- | --- | --- | --- | --- | --- | --- | --- | --- | --- |
| MyoF:SRB | -0.005 ± 0.016 | -0.0005 ± 0.0021 | 0.0035 ± 0.011 | -0.004 ± 0.018 | -0.021 ± 0.0085 | -0.024 ± 0.0014 | 0.008 ± 0.0042 | 0.0055 ± 0.012 | 0.004 ± 0.018 | 0 ± 0.011 | 0.003 ± 0.0028 | -0.003 ± 0.018 | 0.0005 ± 0.011 | -0.009 ± 0.014 | -0.0255 ± 0.021 | 0 ± 0.0042 | -0.0015 ± 0.012 | 0.0015 ± 0.016 | -0.017 ± 0.0014 |
| HDF3CGF:Proliferation 72hr | -0.0095 ± 0.087 | 0.001 ± 0.042 | 0.008 ± 0.0071 | -0.031 ± 0.011 | 0.0195 ± 0.036 | -0.197 ± 0.11 | 0.0275 ± 0.025 | 0.0095 ± 0.076 | 0.006 ± 0.04 | 0.001 ± 0.0042 | -0.0005 ± 0.012 | -0.0095 ± 0.019 | -0.046 | -0.0425 ± 0.029 | -0.1 ± 0.047 | -0.015 ± 0.065 | 0 ± 0.0099 | 0.021 ± 0.02 | -1.04 ± 0.033 |
| CASM3C:CD142/Tissue Factor | -0.006 ± 0.021 | 0 ± 0.038 | 0.0045 ± 0.022 | -0.038 ± 0.014 | -0.057 ± 0.047 | -0.0205 ± 0.03 | -0.019 ± 0.034 | -0.0065 ± 0.0078 | 0.0235 ± 0.035 | -0.0245 ± 0.028 | -0.0635 ± 0.037 | -0.0395 ± 0.035 | 0.013 ± 0.011 | 0.0485 ± 0.0021 | 0.133 ± 0.052 | -0.013 ± 0.02 | -0.0225 ± 0.016 | -0.038 ± 0.02 | -0.007 ± 0.054 |
| CASM3C:IL-6 | 0.004 ± 0.031 | 0.0105 ± 0.028 | 0.022 ± 0.0071 | -0.035 ± 0.013 | -0.0435 ± 0.005 | -0.0155 ± 0.033 | 0.0195 ± 0.028 | 0.005 ± 0.025 | 0.036 ± 0.098 | 0.006 ± 0.014 | -0.0145 ± 0.021 | 0.031 ± 0.017 | -0.02 ± 0.033 | -0.0685 ± 0.0078 | -0.029 ± 0.024 | -0.0065 ± 0.00071 | -0.022 ± 0.025 | 0.005 ± 0.02 | -0.0335 ± 0.0021 |
| CASM3C:LDLR | -0.0045 ± 0.036 | 0.006 ± 0.0042 | 0.0055 ± 0.0078 | -0.0095 ± 0.0092 | 0.007 ± 0.0099 | 0.0285 ± 0.022 | 0.0305 ± 0.021 | 0.02 ± 0.035 | 0.0415 ± 0.053 | -0.052 ± 0.03 | -0.0235 ± 0.025 | 0.0035 ± 0.035 | -0.019 ± 0.062 | -0.0255 ± 0.013 | -0.0135 ± 0.0035 | -0.0055 ± 0.0021 | -0.0095 ± 0.0064 | 0 ± 0.035 | 0.0385 ± 0.023 |
| MyoF:CXCL8/IL-8 | -0.0125 ± 0.033 | -0.017 ± 0.024 | -0.014 ± 0.041 | -0.0065 ± 0.0078 | -0.162 ± 0.022 | -0.115 ± 0.025 | 0.065 ± 0.1 | 0.078 ± 0.1 | 0.142 ± 0.12 | -0.017 ± 0.0071 | 0.014 ± 0.011 | 0.03 ± 0.0085 | -0.003 ± 0.064 | 0.0405 ± 0.057 | 0.013 ± 0.09 | -0.0155 ± 0.035 | -0.0145 ± 0.037 | 0 ± 0.04 | -0.0505 ± 0.033 |
| HDF3CGF:TIMP-1 | -0.0075 ± 0.0078 | -0.007 ± 0.024 | -0.019 ± 0.03 | -0.026 ± 0.027 | -0.0285 ± 0.047 | -0.023 ± 0.025 | 0.012 ± 0.037 | -0.0115 ± 0.05 | -0.065 ± 0.083 | 0.002 ± 0.014 | 0.012 ± 0.025 | 0.0395 ± 0.05 | -0.0095 ± 0.042 | 0.039 ± 0.0042 | 0.0325 ± 0.021 | -0.029 ± 0.024 | -0.07 ± 0.0085 | -0.033 ± 0.016 | -0.105 ± 0.052 |
| lMphg:CD40 | 0.0055 ± 0.011 | -0.005 ± 0.016 | -0.0195 ± 0.0078 | -0.009 ± 0.016 | -0.0175 ± 0.0092 | -0.0135 ± 0.005 | -0.017 ± 0.014 | -0.0245 ± 0.029 | -0.018 ± 0.025 | 0.036 ± 0.037 | 0.0115 ± 0.022 | -0.002 ± 0.011 | -0.0015 ± 0.00071 | 0.0085 ± 0.04 | -0.007 ± 0.017 | 0.0005 ± 0.036 | 0.005 ± 0.042 | -0.357 ± 0.028 | -0.037 ± 0.018 |
| HDF3CGF:CCL2/MCP-1 | 0.0055 ± 0.012 | -0.001 ± 0.0057 | -0.0115 ± 0.018 | -0.0645 ± 0.026 | -0.108 ± 0.013 | -0.091 ± 0.0042 | -0.0045 ± 0.005 | 0.0155 ± 0.012 | 0.007 ± 0.021 | -0.036 ± 0.0099 | -0.0285 ± 0.037 | 0.0095 ± 0.00071 | -0.0125 ± 0.021 | 0.0255 ± 0.021 | -0.0205 ± 0.033 | 0.0305 ± 0.033 | 0.0075 ± 0.0064 | 0.0095 ± 0.015 | -0.284 ± 0.03 |
| CASM3C:Serum Amyloid A | 0.0145 ± 0.0078 | 0.03 ± 0.021 | 0.0075 ± 0.0064 | -0.0445 ± 0.021 | -0.0515 ± 0.0078 | 0.0015 ± 0.06 | -0.017 ± 0.0042 | -0.0155 ± 0.039 | 0.0305 ± 0.1 | -0.022 ± 0.038 | -0.008 ± 0.0042 | -0.002 ± 0.0014 | -0.0625 ± 0.077 | -0.0375 ± 0.052 | 0.006 ± 0.031 | -0.0025 ± 0.044 | -0.0045 ± 0.0078 | 0.0045 ± 0.016 | -0.005 ± 0.024 |
| HDF3CGF:CXCL11/I-TAC | -0.0085 ± 0.023 | -0.01 ± 0.034 | -0.0405 ± 0.018 | -0.005 ± 0.027 | 0.036 ± 0.057 | -0.001 ± 0.092 | 0.006 ± 0.011 | -0.0165 ± 0.012 | -0.0835 ± 0.00071 | -0.015 ± 0.0057 | -0.0145 ± 0.022 | -0.0085 ± 0.013 | -0.014 ± 0.016 | -0.0495 ± 0.00071 | -0.137 ± 0.016 | -0.0245 ± 0.03 | -0.0655 ± 0.005 | -0.0155 ± 0.04 | -0.367 ± 0.096 |
| HDF3CGF:CXCL10/IP-10 | -0.017 ± 0.0071 | -0.021 ± 0.0071 | -0.024 ± 0.016 | -0.008 ± 0.025 | 0.0085 ± 0.013 | 0.006 ± 0.055 | 0.0045 ± 0.035 | -0.0155 ± 0.0064 | -0.069 ± 0.02 | -0.013 ± 0.021 | -0.01 ± 0.016 | -0.0235 ± 0.0035 | -0.024 ± 0.0014 | -0.058 | -0.099 ± 0.0042 | -0.0435 ± 0.015 | -0.0725 ± 0.0064 | -0.039 ± 0.02 | -0.275 ± 0.057 |
